The values below come from patent US11685900B2, “Nanofiber-based long-term primary hepatocyte three-dimensional culture system and culturing method” (NANOFAENTECH CO., LTD., priority 2017, dated 2023).

The data set concerns primary hepatocytes. The following applies: mouse, 24 h. The protocol: Fifty μL of the sample to be quantified and 100 μL of acetonitrile were mixed, centrifuged at 14000 rpm for 10 minutes and the obtained supernatant (130 μL) was dried in nitrogen gas and was dissolved in a solution (10 mM potassium phosphate:acetonitrile, 65%:35% (v/v)) and measured by HPLC (Shimazu Prominence LC-20A) at flow rate of 1 mL/min and at an absorbance of 245 nm for 10 minutes.

Take `CCOc1ccc(NC(C)=O)cc1` [phenacetin]: the “decrease of the drug administered” value (50 μM) is on record as 75-85%. In addition, where the note is “500 μM”, the “concentration of phenacetin detected in the culture” value is 350 to 400 µM, the “concentration of phenacetin detected in the culture medium” value worked out at 350 µM and the “concentration of phenacetin measured in the culture” value is listed as “about 200 μM”.
